From ChEMBL document CHEMBL3301464, “MMV Malaria Box anti-babesial screening”

Legend:
[1] = (§1) MMV: Anti-babesial activity assay. Parasite pRBCs at 1% parasitemia were cultivated in 100 ul with 96-well plates at 2.5% and 5% hematocrits. The parasites were cultivated in triplicate for 4 days without replacement of the medium for each concentration of the compound.; assay type: functional, Babesia bovis
[2] = as §1; assay type: functional, Babesia equi
[3] = as §1; assay type: functional, Babesia caballi
[4] = as §1; assay type: functional, Babesia bigemina

| Structure (SMILES) | IC50 [1] [µM] | IC50 [2] [µM] | IC50 [3] [µM] | IC50 [4] [µM] |
| --- | --- | --- | --- | --- |
| CCN(CC)CCNc1ncnc2c1[nH]c1ccc(Br)cc12 | 1 | 4.6 | 4.19 | 3.03 |
| CCN(CC)CCNc1ncnc2c1[nH]c1ccc(Cl)cc12 | 17.6 | 3.42 | 2.64 | 16.2 |
| Fc1ccc2[nH]c3c(NCCCN4CCOCC4)ncnc3c2c1 | 19.7 | 2.88 | 14.7 | 17.1 |
| Nc1nc(Nc2cccc(F)c2)nc2ccccc12 | 0.73 | 0.79 | 6.08 | 7.65 |
| O=C(NC1CCCC1)c1ccc(N2CCC(NCc3cccc(C(F)(F)F)c3)CC2)cc1 | 14 | 10 | 13.4 | 25 |
| COc1ccc(N2CCN(C(CNC(=O)CC(C)(C)C)c3ccc4c(c3)OCO4)CC2)cc1 (stereo not drawn) | 0.79 | 0.51 | 16.1 | 0.1 |
| CCN(Cc1ccccc1)C1CCN(Cc2cc(Br)ccc2O)CC1 | 18.2 | 3.03 | 6.51 | 20.2 |
| c1ccc2c(NCCCCCCNc3c4c(nc5ccccc35)CCCC4)c3c(nc2c1)CCCC3 | 0.99 | 0.5 | 6.31 | 2.17 |
| CSC1=NC(=Nc2c(C)cccc2C)C2(CCC(C(C)(C)C)CC2)N1c1ccc(Cl)cc1 (stereo not drawn) | 18.4 | 11.5 | 15 | 17.1 |
| Cc1ccc(CSCc2ccc(C(=O)NC3CC3)o2)cc1 | 8.31 | 4.48 | 12.9 | 15.2 |
| COc1nc(Nc2ccc(C(C)C)cc2)nc(OC)n1 | 1.03 | 12.3 | 0.076 | 10.1 |
| COc1ccc(/C=C2/SC(=Nc3ccccc3)NC2=O)cc1 | 4.91 | 0.1 | 13.3 | 1 |
| CC(=O)Nc1nnc(SCc2c(C)cc(C(C)(C)C)cc2C)s1 | > 25 | 15.8 | 12.8 | 11.4 |
| CCCc1cc(O)c2c3c(c(=O)oc2c1)CN(C)CC3 | 23.9 | 18.5 | 7.87 | 16.4 |
| CCCOCc1cc(CN2CCN(c3cccc(Cl)c3)CC2)c(O)c2ncccc12 | 1.74 | 2.95 | 5.9 | 3.86 |
| COc1cccc(NC(=O)Cn2c(C)c(C#N)c3ccccc32)c1 | 9.04 | 7.3 | 10.1 | 14.8 |
| N#Cc1nc(Cc2cccc3ccccc23)oc1N1CCN(C(c2ccccc2)c2ccccc2)CC1 | 16.1 | 12 | 5.09 | 19.8 |
| CCCCc1ccc(NS(=O)(=O)c2cc3c4c(c2)CCN4C(=O)CC3)cc1 | 25 | 0.57 | 0.07 | 12.5 |
| COc1ccc(C2NCCc3c2[nH]c2ccccc32)cc1CN1CCN(c2ccc(F)cc2)CC1 (stereo not drawn) | 3.71 | 10.1 | 10 | 16.5 |
| CC(C)(C)c1ccc(C2CC3=Nc4ccccc4N(C(=O)c4ccccc4Cl)C(c4ccc(F)cc4)C3=C(O)C2)cc1 (stereo not drawn) | 21.4 | 15.2 | 3.73 | 12 |
| COc1ccc(-c2cc3c(nn2)-c2ccccc2C3=O)cc1 | 0.34 | 9.18 | 14.8 | 10 |

| Structure (SMILES) | IC50 [1] [µM] | IC50 [2] [µM] | IC50 [3] [µM] | IC50 [4] [µM] |
| --- | --- | --- | --- | --- |
| CN1C=C(c2ccc3ccccc3n2)C(c2c[nH]c3ccccc23)c2ccccc21 (stereo not drawn) | 5.9 | 5.12 | 0.304 | 4.52 |
| CCOc1cccc(C(=O)Nc2ccc(-c3nc4ccccc4[nH]3)cc2)c1 | 17.2 | 10 | 0.075 | 5.64 |
| CC(C)(C)c1ccc(O)c(CNC2CCCCC2)c1 | 18.2 | 7 | 10 | 17 |
| O=C(Nc1ccc(Br)cc1)Nc1cccc(Cl)c1 | 7.66 | 9.12 | > 25 | 12.8 |
| CCOc1c(Cl)cc(CNC(C)C(O)c2ccccc2)cc1OC (stereo not drawn) | 1.89 | 6.69 | 12 | 7.31 |
| CCOC(=O)c1cnc2ccc(Cl)cc2c1NCCCN(C)C | 0.42 | 3.86 | 0.11 | 5.51 |
| Cc1ccc(C(=O)c2oc3ccc4c(C)cc(=O)oc4c3c2C)cc1 | 0.07 | 0.054 | 9.18 | 0.065 |
| O=c1cc(NC2CCN(CCCc3ccccc3)CC2)c2cc(Cl)ccc2o1 | 18.2 | 8.77 | 16.5 | 10 |
| CCCCCCc1cc2cc(-c3nc4ccccc4[nH]3)c(=Nc3ccccc3C)oc2cc1O | 19.7 | > 25 | 25 | 17.2 |
| CCOc1ccccc1CNC(=O)C1c2ccccc2C(=O)N(CC(C)C)C1c1cccs1 (stereo not drawn) | 0.83 | 12.4 | 14.3 | 0.1 |
| Cc1cc(Nc2ccc(OCc3ccccc3)cc2)nc2cc(O)ccc12 | 0.17 | 6.31 | 4.91 | 3.45 |
| O=C(Nc1ccc(-c2nc3cc4ccccc4cc3[nH]2)cc1)c1cccc(Br)c1 | 7 | 10 | 9.03 | 4.91 |
| Cc1ccnc(NC(c2cccc(OCc3ccccc3)c2)c2ccc3cccnc3c2O)c1 (stereo not drawn) | 1.9 | 1.4 | 4.17 | 13.8 |
| COc1ccc(-c2nonc2NC(=O)c2cccc(Cl)c2)cc1OC | 10 | 16.6 | 11.5 | 8.2 |
| COc1ccc(CN2CCN(Cc3ccccc3)CC2)c(O)c1 | 8.22 | 10 | 12 | 15.2 |
| CCCCCn1c(=N)n(CC(O)COc2cccc(C)c2)c2ccccc21 (stereo not drawn) | 0.08 | 4.52 | 5.9 | 0.1 |
| COc1ccc(C2c3ccc4ccccc4c3Oc3ncn(CCCn4ccnc4)c(=N)c32)cc1OC (stereo not drawn) | 6.3 | 5.68 | 0.41 | 0.1 |
| O=C(Nc1nc(-c2ccccn2)cs1)c1ccccc1Br | 4.6 | 5.5 | 1 | 1 |
| CCn1nc(-c2ccc(C(=O)OC)cc2)nc2c(=O)n(C)c(=O)nc1-2 | 12.8 | 5.06 | 0.09 | 7.89 |
| CN(C)c1ccc(C=Cc2nc(=O)c3ccccc3o2)cc1 | 16.2 | 11.5 | 14.6 | 16.8 |
| CC(C)(C)c1ccc2c(c1)CN(Cc1ccc(Cl)cc1)CO2 | 16.5 | 12.8 | 5.9 | > 25 |

| Structure (SMILES) | IC50 [1] [µM] | IC50 [2] [µM] | IC50 [3] [µM] | IC50 [4] [µM] |
| --- | --- | --- | --- | --- |
| COc1ccc2nc(C)cc(Nc3ccc(Cl)cc3)c2c1 | 2.4 | 4.29 | > 25 | 8.15 |
| COc1cccc(C2(C)Nc3ccccc3-c3nc4ccccc4n32)c1 (stereo not drawn) | 13.9 | 10 | 1 | 25 |
| OC1=C2C(=Nc3ccccc3SC2c2ccc(Br)cc2)c2ccccc21 (stereo not drawn) | 11.1 | 12 | 7.95 | 15.2 |
| Cc1sc(NC(=O)c2ccccc2)c(C(c2cccs2)N2CCN(c3ccccc3)CC2)c1C (stereo not drawn) | 1.05 | 10.7 | 14.7 | 0.68 |
| CCCCNCC(O)(c1ccc(Cl)cc1)c1ccc(Cl)cc1 | 15.5 | 1 | 5.35 | 0.078 |
| Clc1cc(Br)ccc1-c1ccc(CNCC2CCNCC2)o1 | 0.33 | 5.93 | 12.4 | 4.19 |
| Oc1ccc(C(=C(Cl)Cl)c2ccc(O)cc2)cc1 | 15.9 | 13.8 | 21.1 | > 25 |
| CC(C)(C)C(=O)Nc1ccc(C(=O)Nc2cccc(-c3nc4ccccc4[nH]3)c2)cc1 | 0.32 | 5.19 | 2.19 | 0.08 |
| CCCCc1c(CCC)c(=N)c2ccccc2n1C | 0.087 | 15.2 | 1 | 0.059 |
| CCc1c(C)c(=N)c2ccccc2n1C | 18.4 | 7.23 | 0.26 | 3.42 |
| CC1CCN(Cc2ccc(NC(=O)c3cc4ccc5cccnc5c4[nH]3)cc2)CC1 | 9.55 | 6.41 | 13.1 | 15.3 |
| COc1ccc(-c2nc(N3CCN(C(=O)C4CCCCC4)CC3)c3c4c(sc3n2)CCCC4)cc1 | 1.07 | 8.36 | 11.9 | 1 |
| OC1=C2C(=Nc3ccccc3SC2c2ccccc2)c2ccccc21 (stereo not drawn) | 0.1 | 0.1 | 8.77 | 0.5 |
| Oc1ccccc1CN1CCC2(CCCN(Cc3ccccc3F)C2)C1 (stereo not drawn) | 14.3 | 0.1 | 5.06 | 0.73 |
| CC1CN(C(=O)c2sc3ccccc3c2Cl)CC(C)O1 (stereo not drawn) | > 25 | 23.1 | 19.2 | 18.2 |
| FC(F)(F)c1cccc(Nc2nc3ccccc3nc2Nc2cccc(C(F)(F)F)c2)c1 | 0.14 | 4.13 | 4.27 | 3.45 |
| CCn1c2c(c(=N)c3c1CCC3)CCCC2 | 0.052 | 15 | 0.44 | 0.082 |
| CCOc1ccc(-n2cc(-c3ccccc3)c3c(SCc4cc(C)ccc4C)ncnc32)cc1 | 14.6 | 13.9 | 16.5 | 10.7 |
| COc1ccccc1CNC(=O)CCn1c(=O)[nH]c2ccccc2c1=O | 19.5 | 14.2 | 4.38 | 3.9 |
| O=C(NCC(c1ccsc1)N1CCCCCC1)c1ccc(C(F)(F)F)cc1 (stereo not drawn) | 18.2 | 18.1 | 10 | 13.6 |
